Measurements from patent publication US8986696B2, “Trans-capsular administration of p38 map kinase inhibitors into orthopedic joints” (DePuy Mitek, Inc., priority 2007, dated 2015).

How the values were obtained:
[1] = system: rabbit anterior cruciate ligament transection (ACLT) model of osteoarthritis; test: ACLT model pilot study, JNJ 3026582 (Example VI); format: in vivo
Method: New Zealand white rabbits (male, six to eight pounds) were anesthetized with ketamine (17 mg/kg) and xylazine (2.5 mg/kg). Supplementation was given during surgery, if needed, with an additional intramuscular injection of ketamine (35 mg/kg) and xylazine (5 mg/kg). The animals were given buprenorphine (0.01-0.05 mg/kg) for analgesia via a subcutaneous injection. The buprenorphine was administered every twelve hours for seventy-two hours. After induction of anesthesia, the right leg was clipped free of hair using electric animal clippers. The area around the site of surgery was scrubbed with chlorhexidine diacetate, rinsed with alcohol, dried, and painted with an aqueous iodophor solution of 1% available iodine and surgery was prepared using aseptic technique. In the right limb of each animal, the anterior cruciate ligament (ACL) was transected. A medial parapatellar incision was made and the patella was dislocated. The knee was flexed and the ACL visualized. A scalpel blade was positioned behind the ACL and brought anteriorly, thereby cutting the ACL while protecting the posterior cruciate ligament. The patella was returned to the normal anatomic position. The wound was closed in layers.
Following surgery, the animals were left untreated for six weeks. After six weeks, a series of five injections of the test compound were injected intra-articularly once weekly.
The animals were euthanized six weeks after initiation with an intravenous injection of pentobarbital (60 mg/kg). […] Immediately following euthanasia, gross observations of the knee joints were made and any abnormality was recorded. The joints were analyzed for disease state in the trochlear groove, the femoral condyles and the tibial plateau. Pathological assessments were performed on the sectioned tissue. Condylar structure, cellularity, presence of GAG and presence of cartilage were evaluated.
Sterile formulations of JNJ 3026582 (RWJ 67657) were prepared by gamma irradiation (1.5 mRAD) on dry ice. DMSO was sterile filtered and the remaining formulations were prepared aseptically. Specifically, 11.5 mg of JNJ 3026582 (RWJ 67657) was dissolved in 4 mL DMSO and the solution was thoroughly mixed with 5 mL of ARTHREASE® (Lot: 11840812) (Biotechnology General (Israel) Ltd.). The final concentration of JNJ 3026582 (RWJ 67657) in the formulation was 1.3 μg/μL and was considered the high dose. The mid dose was made by a 1:10 dilution of the high dose. The low dose was created in the same fashion as the mid dose i.e., by a 1:10 dilution of the mid dose.
A total of four rabbits (n=4) underwent ACLT of the right limb according to the ACLT model described above.
As discussed above, each formulation was injected once per week for five weeks. 160 μI was injected each time via a 26G (gauge) needle. The vehicle for the formulation was ARTHREASE® (Bio-Technology General (Israel) Ltd.).
At the time of sacrifice, the following parameters were evaluated grossly (the scale follows in parenthesis):
Each parameter was given a score. The combination of all parameters gave a Total Score. A higher score indicates more damage to the joint. The most clinically relevant parameters are discussed in detail below.

p38α MAP kinase = p38α MAP kinase (Homo sapiens, UniProt Q16539); test: p38α MAP kinase enzyme inhibition; format: biochemical
Sequence of p38α MAP kinase (Q16539 whole entry): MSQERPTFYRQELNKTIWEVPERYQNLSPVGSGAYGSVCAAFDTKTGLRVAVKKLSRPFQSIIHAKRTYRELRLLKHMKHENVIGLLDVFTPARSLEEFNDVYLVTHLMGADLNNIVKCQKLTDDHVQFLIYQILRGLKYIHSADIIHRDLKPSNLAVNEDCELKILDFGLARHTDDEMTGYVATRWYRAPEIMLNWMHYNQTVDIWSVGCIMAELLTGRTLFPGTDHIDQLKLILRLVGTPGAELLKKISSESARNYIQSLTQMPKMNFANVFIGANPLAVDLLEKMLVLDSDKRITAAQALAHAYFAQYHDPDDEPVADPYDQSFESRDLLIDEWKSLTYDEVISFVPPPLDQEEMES

Question: For `OCCC#Cc1nc(-c2ccc(F)cc2)c(-c2ccncc2)n1CCCc1ccccc1` [JNJ 3026582 (RWJ 67657), 4-[4-(4-fluorophenyl)-1-(3-phenylpropyl)-5-(4-pyridinyl)-1H-imidazol-2-yl]-3-butyn-1-ol], which “Appearance of Meniscus Lateral, mean score” value ([1]; High 50 μg/kg) is on record?
Answer: Its value is 2.00.

Question: And the “Appearance of Meniscus Medial, mean score” value ([1]; High 50 μg/kg)?
Answer: Its value is 2.25.

Question: What about the “Appearance of Patella, mean score” value ([1]; High 50 μg/kg) of the same molecule?
Answer: Its value is 1.25.

Question: And the “Femoral Condyle Presence of Clefts, mean score” value (from here on “Femoral Condyle Presence”) ([1]; High 50 μg/kg)?
Answer: Its value is 0.

Question: And the “Tibial Plateau (Lateral) # of Osteophytes, mean score” value (“Tibial Plateau (Lateral) #” for short) ([1]; High 50 μg/kg)?
Answer: Its value is 2.00.

Question: And the “Tibial Plateau (Lateral) Depth of Erosion, mean score” value (“Tibial Plateau (Lateral) Depth” for short) ([1]; High 50 μg/kg)?
Answer: The value was 2.06.

Question: What about the “Tibial Plateau (Lateral) Presence of Clefts, mean score” value (“Tibial Plateau (Lateral) Presence” for short) ([1]; High 50 μg/kg) of the same molecule?
Answer: The value was 0.

Question: What about the “Tibial Plateau (Lateral) Surface Area Erosion, mean score” value ([1]; High 50 μg/kg) of the same molecule?
Answer: The value was 2.50.

Question: And the “Tibial Plateau (Medial) # of Osteophytes, mean score” value (from here on “Tibial Plateau (Medial) #”) ([1]; High 50 μg/kg)?
Answer: Its value is 1.63.

Question: And the “Tibial Plateau (Medial) Depth of Erosion, mean score” value (“Tibial Plateau (Medial) Depth” below) ([1]; High 50 μg/kg)?
Answer: Its value is 1.94.

Question: What about the “Tibial Plateau (Medial) Presence of Clefts, mean score” value (shortened to “Tibial Plateau (Medial) Presence”) ([1]; High 50 μg/kg) of the same molecule?
Answer: The value was 0.

Question: And the “Tibial Plateau (Medial) Surface Area Erosion, mean score” value ([1]; High 50 μg/kg)?
Answer: Its value is 2.50.

Question: And the “Trochlear Groove # of Osteophytes, mean score” value (from here on “Trochlear Groove #”) ([1]; High 50 μg/kg)?
Answer: The value was 3.00.

Question: What about the “Trochlear Groove Erosion of Cartilage, mean score” value (“Trochlear Groove Erosion” for short) ([1]; High 50 μg/kg) of the same molecule?
Answer: The value was 1.25.

Question: What about the “Trochlear Groove Osteophyte Size, mean score” value ([1]; High 50 μg/kg) of the same molecule?
Answer: The value was 3.00.

Question: And the “Trochlear Groove Thickening, mean score” value ([1]; High 50 μg/kg)?
Answer: Its value is 0.25.

Question: What about the “Appearance of Meniscus Lateral, mean score” value ([1]; Low 0.5 μg/kg) of the same molecule?
Answer: Its value is 1.25.

Question: And the “Appearance of Meniscus Medial, mean score” value ([1]; Low 0.5 μg/kg)?
Answer: Its value is 1.25.

Question: What about the “Appearance of Patella, mean score” value ([1]; Low 0.5 μg/kg) of the same molecule?
Answer: The value was 0.50.

Question: And the “Femoral Condyle Presence” value ([1]; Low 0.5 μg/kg)?
Answer: The value was 0.

Question: And the “Tibial Plateau (Lateral) #” value ([1]; Low 0.5 μg/kg)?
Answer: The value was 1.75.

Question: And the “Tibial Plateau (Lateral) Depth” value ([1]; Low 0.5 μg/kg)?
Answer: Its value is 2.13.

Question: And the “Tibial Plateau (Lateral) Presence” value ([1]; Low 0.5 μg/kg)?
Answer: The value was 0.

Question: What about the “Tibial Plateau (Lateral) Surface Area Erosion, mean score” value ([1]; Low 0.5 μg/kg) of the same molecule?
Answer: Its value is 2.00.

Question: And the “Tibial Plateau (Medial) #” value ([1]; Low 0.5 μg/kg)?
Answer: The value was 1.50.

Question: And the “Tibial Plateau (Medial) Depth” value ([1]; Low 0.5 μg/kg)?
Answer: Its value is 0.50.

Question: What about the “Tibial Plateau (Medial) Presence” value ([1]; Low 0.5 μg/kg) of the same molecule?
Answer: Its value is 0.

Question: What about the “Tibial Plateau (Medial) Surface Area Erosion, mean score” value ([1]; Low 0.5 μg/kg) of the same molecule?
Answer: The value was 0.25.

Question: And the “Trochlear Groove #” value ([1]; Low 0.5 μg/kg)?
Answer: The value was 3.00.

Question: And the “Trochlear Groove Erosion” value ([1]; Low 0.5 μg/kg)?
Answer: The value was 1.00.

Question: What about the “Trochlear Groove Osteophyte Size, mean score” value ([1]; Low 0.5 μg/kg) of the same molecule?
Answer: The value was 3.00.

Question: What about the “Trochlear Groove Thickening, mean score” value ([1]; Low 0.5 μg/kg) of the same molecule?
Answer: Its value is 0.50.

Question: What about the “Appearance of Meniscus Lateral, mean score” value ([1]; Mid 5 μg/kg) of the same molecule?
Answer: Its value is 1.00.

Question: What about the “Appearance of Meniscus Medial, mean score” value ([1]; Mid 5 μg/kg) of the same molecule?
Answer: The value was 2.5.

Question: What about the “Appearance of Patella, mean score” value ([1]; Mid 5 μg/kg) of the same molecule?
Answer: The value was 1.38.

Question: What about the “Femoral Condyle Presence” value ([1]; Mid 5 μg/kg) of the same molecule?
Answer: Its value is 0.

Question: And the “Tibial Plateau (Lateral) #” value ([1]; Mid 5 μg/kg)?
Answer: Its value is 2.25.

Question: And the “Tibial Plateau (Lateral) Depth” value ([1]; Mid 5 μg/kg)?
Answer: The value was 0.88.

Question: And the “Tibial Plateau (Lateral) Presence” value ([1]; Mid 5 μg/kg)?
Answer: The value was 0.

Question: What about the “Tibial Plateau (Lateral) Surface Area Erosion, mean score” value ([1]; Mid 5 μg/kg) of the same molecule?
Answer: Its value is 2.25.

Question: And the “Tibial Plateau (Medial) #” value ([1]; Mid 5 μg/kg)?
Answer: Its value is 2.00.

Question: And the “Tibial Plateau (Medial) Depth” value ([1]; Mid 5 μg/kg)?
Answer: Its value is 1.13.

Question: And the “Tibial Plateau (Medial) Presence” value ([1]; Mid 5 μg/kg)?
Answer: Its value is 0.

Question: And the “Tibial Plateau (Medial) Surface Area Erosion, mean score” value ([1]; Mid 5 μg/kg)?
Answer: The value was 2.00.

Question: What about the “Trochlear Groove #” value ([1]; Mid 5 μg/kg) of the same molecule?
Answer: Its value is 3.00.

Question: And the “Trochlear Groove Erosion” value ([1]; Mid 5 μg/kg)?
Answer: Its value is 1.63.

Question: What about the “Trochlear Groove Osteophyte Size, mean score” value ([1]; Mid 5 μg/kg) of the same molecule?
Answer: Its value is 3.00.

Question: What about the “Trochlear Groove Thickening, mean score” value ([1]; Mid 5 μg/kg) of the same molecule?
Answer: The value was 0.75.

Question: What about the “All Cartilage Effects (0-38), average score” value (shortened to “All Cartilage Effects”) ([1]; high dose 50 μg/kg) of the same molecule?
Answer: The value was 19.19.

Question: And the “All Condylar Effects (0-18), average score” value (shortened to “All Condylar Effects”) ([1]; high dose 50 μg/kg)?
Answer: The value was 8.69.

Question: What about the “All Meniscal Effects (0-6), average score” value (from here on “All Meniscal Effects”) ([1]; high dose 50 μg/kg) of the same molecule?
Answer: The value was 4.25.

Question: And the “Total Score (0-59), average” value ([1]; high dose 50 μg/kg)?
Answer: Its value is 34.31.

Question: What about the “lateral femoral condyle % surface area erosion, average score” value ([1]; high dose 50 μg/kg) of the same molecule?
Answer: The value was 2.5.

Question: And the “medial femoral condyle % surface area erosion, average score” value ([1]; high dose 50 μg/kg)?
Answer: Its value is 2.25.

Question: What about the “All Cartilage Effects” value ([1]; low dose 0.5 μg/kg) of the same molecule?
Answer: The value was 12.75.

Question: What about the “All Condylar Effects” value ([1]; low dose 0.5 μg/kg) of the same molecule?
Answer: The value was 6.38.

Question: What about the “All Meniscal Effects” value ([1]; low dose 0.5 μg/kg) of the same molecule?
Answer: Its value is 2.50.

Question: And the “Total Score (0-59), average” value ([1]; low dose 0.5 μg/kg)?
Answer: Its value is 25.00.

Question: What about the “lateral femoral condyle % surface area erosion, average score” value ([1]; low dose 0.5 μg/kg) of the same molecule?
Answer: Its value is 1.23.

Question: And the “medial femoral condyle % surface area erosion, average score” value ([1]; low dose 0.5 μg/kg)?
Answer: Its value is 1.5.

Question: What about the “All Cartilage Effects” value ([1]; mid dose 5 μg/kg) of the same molecule?
Answer: Its value is 14.50.

Question: What about the “All Condylar Effects” value ([1]; mid dose 5 μg/kg) of the same molecule?
Answer: Its value is 5.88.

Question: What about the “All Meniscal Effects” value ([1]; mid dose 5 μg/kg) of the same molecule?
Answer: The value was 3.50.

Question: What about the “Total Score (0-59), average” value ([1]; mid dose 5 μg/kg) of the same molecule?
Answer: The value was 29.63.

Question: What about the “lateral femoral condyle % surface area erosion, average score” value ([1]; mid dose 5 μg/kg) of the same molecule?
Answer: The value was 0.75.

Question: And the “medial femoral condyle % surface area erosion, average score” value ([1]; mid dose 5 μg/kg)?
Answer: Its value is 1.63.

Question: How did the IC50 (p38α MAP kinase) turn out when `CC(=O)N1CCN(c2c(-c3ccncc3)c(-c3ccc(F)cc3)c(C#N)n2C)CC1` [JNJ 17089540 (RWJ 669307)] was run?
Answer: The IC50 was 2000 nM.
